From patent publication US10463592B2, “Peptide with anti-aging effect and use thereof” (Osaka University, priority 2013, dated 2019)

What was measured:
NHDF (NB) cells = assay: Hyaluronic acid production by fibroblasts, ELISA; format: cell-based, human; details: for Hyaluronic acid production (% of control): highest value over 3, 10, 30, 100 and 300 μM, 5 days
Experimental: The amount of the hyaluronic acid production by fibroblasts was determined by ELISA. As a control, a group containing no peptide was used. NHDF (NB) cells were seeded in 24-well plates and cultured overnight (2×10^4 cells/500 μL per well). The culture medium used was Medium 106 (containing 1% FBS without growth supplements). Twenty hours after cell seeding, 500 μL of a solution of each peptide in the culture medium was added to each well to a final peptide concentration of 3, 10, 30, 100 or 300 μM. To control wells, 500 μL of the culture medium alone was added. The cells were cultured in a 5% CO2 incubator at 37° C. for 5 days. After the culture, the culture supernatant was transferred into a 1.5-mL tube and centrifuged at 15,000 rpm at 4° C. for 5 minutes, and the supernatant was harvested in a fresh tube. The amount of hyaluronic acid in the culture supernatant was determined using QnE Hyaluronic Acid (HA) ELISA Assay (Biotech Trading Partners) in accordance with the kit protocol. The percent hyaluronic acid production was calculated as the ratio (%) of the ELISA absorbance of each peptide addition group to that of the control group. The effect of promoting hyaluronic acid production was evaluated on the basis of the percent hyaluronic acid production.
The examination was conducted in the same manner as in Example 4 except that the percent hyaluronic acid production was determined as follows: the amount of hyaluronic acid was quantified from the ELISA calibration curve and the quantified value was used to calculate the ratio (%) of the amount of the hyaluronic acid production of each peptide addition group to that of the control group.

[1] = system: Normal human dermal fibroblasts (NHDF); assay: Fibroblast growth-promoting activity, Cell Counting Kit (WST-1); format: cell-based; details: for Fibroblast growth (% of control): NHDF, 2 days culture, WST-1
Experimental: The fibroblast growth-promoting activity of the peptides was determined using Cell Counting Kit (WST-1) (Dojindo Laboratories). As a control, a group containing no peptide was used. Normal human dermal fibroblasts (from newborns) (Kurabo Industries Ltd., hereinafter called NHDF) were seeded in 96-well plates (0.5×10^4 cells/100 μL per well). The culture medium used was Medium 106 (containing 1% FBS without growth supplements). About 3 hours after cell seeding, 100 μL of a solution of each peptide in the culture medium was added to a final peptide concentration of 0.3, 1, 3, 10, or 30 μM. To control wells, 100 μL of the culture medium alone was added. To blank wells containing no cells, 200 μL of the culture medium alone was added. The cells were cultured in a CO2 incubator for 2 days. After the culture, 20 μL of the WST-1 reagent was added to each well and the plates were allowed to stand in a CO2 incubator for about 2 to 4 hours. The absorbance at 450 nm and 620 nm was determined with a microplate reader (Wallac 1420 ARVOsx (program: WST-1)), and the measured values were corrected by the equation: OD450-OD620. The net OD450 was calculated by subtracting the mean OD450-OD620 of the blank wells from the OD450-OD620 of the test wells. The percent fibroblast growth was calculated as the ratio (%) of the net OD450 of each peptide addition group to that of the control group. The effect of promoting fibroblast growth was evaluated on the basis of the percent fibroblast growth.
The examination was conducted in the same manner as in Example 2 except that the concentration of each peptide was set at 3, 10, 30, 100 or 300 μM.

[2] = Example 4, 3 to 300 μM, ELISA absorbance ratio
[3] = ratio of ELISA absorbance (Example 4)
[4] = highest value over 0.3, 1, 3, 10 and 30 μM
[5] = Example 5, 3 to 300 μM, ELISA calibration curve
[6] = amount quantified from ELISA calibration curve (Example 5)
[7] = at concentrations of 0.3 to 30 μM (Example 2)
[8] = at concentrations of 30 to 300 μM (Example 3)
[9] = highest value over 3, 10, 30, 100 and 300 μM

## ELKLI (Ac-ELKLI-NH2) [OSK-2]
NHDF (NB) cells; [2]
  increase of hyaluronic acid production by fibroblasts: increased the amount of the hyaluronic acid production by fibroblasts
NHDF (NB) cells; [3]
  Hyaluronic acid production (% of control): 184.0 % of control
[1]; [4]
  Fibroblast growth (% of control): 99.7 % of control

## ELKLIFLHRLKRLRKRLKRK (Ac-ELKLIFLHRLKRLRKRLKRK-NH2) [OSK-1]
NHDF (NB) cells; [5]
  increase of hyaluronic acid production by fibroblasts: increased the amount of the hyaluronic acid production by fibroblasts
NHDF (NB) cells; [6]
  Hyaluronic acid production (% of control): 2715.8 % of control
[1]; [7]
  effect of promoting fibroblast growth: exhibited the effect of promoting fibroblast growth
[1]; [8]
  effect of promoting fibroblast growth: exhibited the effect of promoting fibroblast growth
[1]; [4]
  Fibroblast growth (% of control): 146.4 % of control
[1]; [9]
  Fibroblast growth (% of control): 144.9 % of control

## FLHRL (Ac-FLHRL-NH2) [OSK-7]
NHDF (NB) cells; [3]
  Hyaluronic acid production (% of control): 75.2 % of control
[1]; [4]
  Fibroblast growth (% of control): 96.8 % of control

## HRLKR [OSK-20]
NHDF (NB) cells; [6]
  Hyaluronic acid production (% of control): 94.0 % of control

## KLIFL (Ac-KLIFL-NH2) [OSK-4]
NHDF (NB) cells; [2]
  increase of hyaluronic acid production by fibroblasts: increased the amount of the hyaluronic acid production by fibroblasts
NHDF (NB) cells; [3]
  Hyaluronic acid production (% of control): 212.4 % of control
[1]; [7]
  effect of promoting fibroblast growth: exhibited the effect of promoting fibroblast growth
[1]; [4]
  Fibroblast growth (% of control): 102.6 % of control

## KRLKR (Ac-KRLKR-NH2) [OSK-16]
NHDF (NB) cells; [2]
  increase of hyaluronic acid production by fibroblasts: increased the amount of the hyaluronic acid production by fibroblasts
NHDF (NB) cells; [3]
  Hyaluronic acid production (% of control): 110.6 % of control
[1]; [7]
  effect of promoting fibroblast growth: exhibited the effect of promoting fibroblast growth
[1]; [4]
  Fibroblast growth (% of control): 106.1 % of control

## KRLRK (Ac-KRLRK-NH2) [OSK-12]
NHDF (NB) cells; [3]
  Hyaluronic acid production (% of control): 72.0 % of control
[1]; [7]
  effect of promoting fibroblast growth: exhibited the effect of promoting fibroblast growth
[1]; [4]
  Fibroblast growth (% of control): 100.3 % of control

## LHRLK (Ac-LHRLK-NH2) [OSK-8]
NHDF (NB) cells; [2]
  increase of hyaluronic acid production by fibroblasts: increased the amount of the hyaluronic acid production by fibroblasts
NHDF (NB) cells; [3]
  Hyaluronic acid production (% of control): 110.5 % of control
[1]; [4]
  Fibroblast growth (% of control): 98.8 % of control

## LIFLH (Ac-LIFLH-NH2) [OSK-5]
NHDF (NB) cells; [3]
  Hyaluronic acid production (% of control): 65.6 % of control
[1]; [4]
  Fibroblast growth (% of control): 97.6 % of control

## LKLIF (Ac-LKLIF-NH2) [OSK-3]
NHDF (NB) cells; [3]
  Hyaluronic acid production (% of control): 79.9 % of control
[1]; [7]
  effect of promoting fibroblast growth: exhibited the effect of promoting fibroblast growth
[1]; [4]
  Fibroblast growth (% of control): 104.7 % of control

## LKR [OSK-19] (Ac-Leu-Lys-Arg-NH2)
NHDF (NB) cells; [5]
  increase of hyaluronic acid production by fibroblasts: increased the amount of the hyaluronic acid production by fibroblasts
NHDF (NB) cells; [6]
  Hyaluronic acid production (% of control): 117.6 % of control

## LKR [OSK-23]
NHDF (NB) cells; [5]
  increase of hyaluronic acid production by fibroblasts: increased the amount of the hyaluronic acid production by fibroblasts
NHDF (NB) cells; [6]
  Hyaluronic acid production (% of control): 113.7 % of control

## LKRLR [OSK-11]
NHDF (NB) cells; [2]
  increase of hyaluronic acid production by fibroblasts: increased the amount of the hyaluronic acid production by fibroblasts
NHDF (NB) cells; [5]
  increase of hyaluronic acid production by fibroblasts: increased the amount of the hyaluronic acid production by fibroblasts
NHDF (NB) cells; [6]
  Hyaluronic acid production (% of control): 255.0 % of control
NHDF (NB) cells; [3]
  Hyaluronic acid production (% of control): 112.1 % of control
[1]; [7]
  effect of promoting fibroblast growth: exhibited the effect of promoting fibroblast growth
[1]; [8]
  effect of promoting fibroblast growth: exhibited the effect of promoting fibroblast growth
[1]; [4]
  Fibroblast growth (% of control): 112.5 % of control
[1]; [9]
  Fibroblast growth (% of control): 158.5 % of control

## LRKRL (Ac-LRKRL-NH2) [OSK-14]
NHDF (NB) cells; [2]
  increase of hyaluronic acid production by fibroblasts: increased the amount of the hyaluronic acid production by fibroblasts
NHDF (NB) cells; [3]
  Hyaluronic acid production (% of control): 123.6 % of control
[1]; [7]
  effect of promoting fibroblast growth: exhibited the effect of promoting fibroblast growth
[1]; [4]
  Fibroblast growth (% of control): 106.8 % of control

## RKRLK (Ac-RKRLK-NH2) [OSK-15]
NHDF (NB) cells; [2]
  increase of hyaluronic acid production by fibroblasts: increased the amount of the hyaluronic acid production by fibroblasts
NHDF (NB) cells; [3]
  Hyaluronic acid production (% of control): 103.9 % of control
[1]; [7]
  effect of promoting fibroblast growth: exhibited the effect of promoting fibroblast growth
[1]; [4]
  Fibroblast growth (% of control): 102.9 % of control

## RLKR [OSK-18] (Ac-RLKR-NH2)
NHDF (NB) cells; [5]
  increase of hyaluronic acid production by fibroblasts: increased the amount of the hyaluronic acid production by fibroblasts
NHDF (NB) cells; [6]
  Hyaluronic acid production (% of control): 131.9 % of control

## RLKR [OSK-22]
NHDF (NB) cells; [5]
  increase of hyaluronic acid production by fibroblasts: increased the amount of the hyaluronic acid production by fibroblasts
NHDF (NB) cells; [6]
  Hyaluronic acid production (% of control): 101.1 % of control

## RLKRK (Ac-RLKRK-NH2) [OSK-17]
NHDF (NB) cells; [3]
  Hyaluronic acid production (% of control): 81.8 % of control
[1]; [7]
  effect of promoting fibroblast growth: exhibited the effect of promoting fibroblast growth
[1]; [4]
  Fibroblast growth (% of control): 104.2 % of control

## RLKRL [OSK-10]
NHDF (NB) cells; [2]
  increase of hyaluronic acid production by fibroblasts: increased the amount of the hyaluronic acid production by fibroblasts
NHDF (NB) cells; [5]
  increase of hyaluronic acid production by fibroblasts: increased the amount of the hyaluronic acid production by fibroblasts
NHDF (NB) cells; [6]
  Hyaluronic acid production (% of control): 409.1 % of control
NHDF (NB) cells; [3]
  Hyaluronic acid production (% of control): 198.2 % of control
[1]; [7]
  effect of promoting fibroblast growth: exhibited the effect of promoting fibroblast growth
[1]; [8]
  effect of promoting fibroblast growth: exhibited the effect of promoting fibroblast growth
[1]; [4]
  Fibroblast growth (% of control): 116.2 % of control
[1]; [9]
  Fibroblast growth (% of control): 149.9 % of control

## RLKRL [OSK-21]
NHDF (NB) cells; [5]
  increase of hyaluronic acid production by fibroblasts: increased the amount of the hyaluronic acid production by fibroblasts
NHDF (NB) cells; [6]
  Hyaluronic acid production (% of control): 109.3 % of control

## RLRKR (Ac-RLRKR-NH2) [OSK-13]
NHDF (NB) cells; [3]
  Hyaluronic acid production (% of control): 74.3 % of control
[1]; [4]
  Fibroblast growth (% of control): 99.3 % of control
